From ChEMBL document CHEMBL3885881, “DrugMatrix”

Assays:
Rattus norvegicus [1] = species on record: Rattus norvegicus; experiment: DrugMatrix - Regimen: Daily Repeat; format: toxicity, organism-based, Sprague-Dawley; parameters: regimen Daily Repeat, gender Male, age 6-8 weeks; conditions: in vivo, po, 1868 mg/kg, […], route oral GAVAGE, dose level High, vehicle .5 % CMC; for ALANINE AMINOTRANSFERASE / ALBUMIN / ALKALINE PHOSPHATASE / ASPARTATE AMINOTRANSFERASE / BLOOD UREA NITROGEN / CARBON DIOXIDE / CHLORIDE / CHOLESTEROL / CREATININE / GLUCOSE / LACTATE DEHYDROGENASE / LIPASE / PHOSPHORUS / POTASSIUM / SODIUM / TOTAL BILIRUBIN / TOTAL PROTEIN / URIC ACID: tissue Plasma
Rattus norvegicus [2] = species on record: Rattus norvegicus; format: toxicity, organism-based, Sprague-Dawley; conditions: in vivo, po, 1868 mg/kg, 24 h, route oral GAVAGE, dose level High, time 1 day, vehicle .5 % CMC
Description: DrugMatrix - Regimen: Single

## CC(=O)OCc1ccccc1 [E1501]
Rattus norvegicus [1]; tissue Blood, time 11 day
  PLATELET COUNT: 822 x10E3/uL
Rattus norvegicus [1]; tissue Blood, time 14 day
  ABSOLUTE BASOPHIL: 0 CELLS/uL
  ABSOLUTE EOSINOPHIL: 388 CELLS/uL
  ABSOLUTE LYMPHOCYTE: 14397 CELLS/uL
  ABSOLUTE MONOCYTE: 529.5 CELLS/uL
  ABSOLUTE SEGMENTED NEUTROPHIL: 1785.5 CELLS/uL
  BASOPHIL: 0%
  EOSINOPHIL: 2%
  ERYTHROCYTE COUNT: 6.34 x10E6/uL
  HEMATOCRIT: 38%
  HEMOGLOBIN: 13.85 G/DL
  LEUKOCYTE COUNT: 17.1 x10E3/uL
  LYMPHOCYTE: 85%
  MEAN CORPUSCULAR HEMOGLOBIN: 21.9 pg
  MEAN CORPUSCULAR HEMOGLOBIN CONCENTRATION: 36.35 G/DL
  MEAN CORPUSCULAR VOLUME: 60.15 fL
  MONOCYTE: 3.5%
  NEUTROPHIL: 9.5%
  NUCLEATED RED BLOOD CELLS: 0 /100WBC
  PLATELET COUNT: 722 x10E3/uL
Rattus norvegicus [1]; time 11 day
  ALANINE AMINOTRANSFERASE: 128 u/L
  ALBUMIN: 3.9 G/DL
  ALKALINE PHOSPHATASE: 284 u/L
  ASPARTATE AMINOTRANSFERASE: 640 u/L
  BLOOD UREA NITROGEN: 44 mg/dL
  CARBON DIOXIDE: 31 mmol/L
  CHLORIDE: 95 MEQ/L
  CHOLESTEROL: 70 mg/dL
  CREATININE: 0.26 mg/dL
  GLUCOSE: 191 mg/dL
  LACTATE DEHYDROGENASE: 656 u/L
  LIPASE: 9 u/L
  PHOSPHORUS: 14.5 mg/dL
  POTASSIUM: 4.9 MEQ/L
  SODIUM: 146.3 MEQ/L
  TOTAL BILIRUBIN: 0.1 mg/dL
  TOTAL PROTEIN: 5.4 G/DL
  URIC ACID: 1.7 mg/dL
Rattus norvegicus [1]; time 14 day
  ALANINE AMINOTRANSFERASE: 76.5 u/L
  ALBUMIN: 4.3 G/DL
  ALKALINE PHOSPHATASE: 267 u/L
  ASPARTATE AMINOTRANSFERASE: 238 u/L
  BLOOD UREA NITROGEN: 19 mg/dL
  CARBON DIOXIDE: 21.5 mmol/L
  CHLORIDE: 102.5 MEQ/L
  CHOLESTEROL: 79 mg/dL
  CREATININE: 0.27 mg/dL
  GLUCOSE: 207 mg/dL
  LACTATE DEHYDROGENASE: 251.5 u/L
  LIPASE: 9 u/L
  PHOSPHORUS: 11.95 mg/dL
  POTASSIUM: 5.28 MEQ/L
  SODIUM: 152.2 MEQ/L
  TOTAL BILIRUBIN: 0.25 mg/dL
  TOTAL PROTEIN: 6.5 G/DL
  URIC ACID: 1.95 mg/dL
Rattus norvegicus [2]; tissue Blood
  ABSOLUTE EOSINOPHIL: 109.33 CELLS/uL
  ABSOLUTE LYMPHOCYTE: 12916.67 CELLS/uL
  ABSOLUTE MONOCYTE: 245.33 CELLS/uL
  ABSOLUTE SEGMENTED NEUTROPHIL: 1062 CELLS/uL
  BASOPHIL: 0%
  EOSINOPHIL: 0.67%
  ERYTHROCYTE COUNT: 5.87 x10E6/uL
  HEMATOCRIT: 35.33%
  HEMOGLOBIN: 12.87 G/DL
  LEUKOCYTE COUNT: 14.33 x10E3/uL
  LYMPHOCYTE: 90.67%
  MEAN CORPUSCULAR HEMOGLOBIN: 21.93 pg
  MEAN CORPUSCULAR HEMOGLOBIN CONCENTRATION: 36.4 G/DL
  MEAN CORPUSCULAR VOLUME: 60.27 fL
  MONOCYTE: 1.67%
  NEUTROPHIL: 7%
  NUCLEATED RED BLOOD CELLS: 0 /100WBC
  PLATELET COUNT: 831 x10E3/uL
Rattus norvegicus [2]; tissue Plasma
  ALANINE AMINOTRANSFERASE: 51 u/L
  ALBUMIN: 4.13 G/DL
  ALKALINE PHOSPHATASE: 348.67 u/L
  ASPARTATE AMINOTRANSFERASE: 87 u/L
  BLOOD UREA NITROGEN: 12.33 mg/dL
  CARBON DIOXIDE: 26 mmol/L
  CHLORIDE: 101.67 MEQ/L
  CHOLESTEROL: 53 mg/dL
  CREATININE: 0.24 mg/dL
  GLUCOSE: 189 mg/dL
  LACTATE DEHYDROGENASE: 338.67 u/L
  LIPASE: 10 u/L
  PHOSPHORUS: 14.53 mg/dL
  POTASSIUM: 6.76 MEQ/L
  SODIUM: 145.77 MEQ/L
  TOTAL BILIRUBIN: 0.13 mg/dL
  TOTAL PROTEIN: 6.1 G/DL
  URIC ACID: 2.13 mg/dL
